Some test systems named below: A549 NSCLC; K-562 leukemia; KM12 colon; M14 melanoma; MDA-MB-231 breast; NCI-H23 lung; OVCAR-8 ovarian; SK-MEL-2 melanoma; T-47D breast; RXF 393 renal.
Holding throughout (experiment): growth of human tumour cells (NCI), 48 h

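Dose response: 5 concentrations. Exposure: 48 h. Format: 96-well plates. Endpoint: linear interpolation; highest concentration if not reached. TGI denotes the concentration required for complete inhibition of growth.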

Consider `N#Cc1ncn(-c2ccccc2)c1N`, for which the TGI with A549 NSCLC, in the assay on K-562 leukemia, in the assay on KM12 colon, in the assay on M14 melanoma, in the assay with MDA-MB-231 breast and with NCI-H23 lung was greater than 100 µM each time. Also, the TGI with OVCAR-8 ovarian, in the assay on SK-MEL-2 melanoma and in the assay on T-47D breast was greater than 100 µM throughout.

As for `CCOC(=O)C1(Cc2ccccc2)Cc2cc3c(cc2C1)CCC3`, the TGI with A549 NSCLC, in the assay on K-562 leukemia, with KM12 colon, with M14 melanoma, in the assay on MDA-MB-231 breast and in the assay on NCI-H23 lung was greater than 100 µM in each case. For the same compound, the TGI was greater than 100 µM in the assay on OVCAR-8 ovarian, 34.3 µM with SK-MEL-2 melanoma and greater than 100 µM with T-47D breast.

Turning to `CC(=O)OCC1OC(Nc2ccc3nc(C)n(-c4cccc(C)c4)c(=O)c3c2)C(OC(C)=O)C(OC(C)=O)C1OC(C)=O` (configuration not stated), the TGI with K-562 leukemia, in the assay on KM12 colon, in the assay on MDA-MB-231 breast, with NCI-H23 lung, with OVCAR-8 ovarian and in the assay with RXF 393 renal was greater than 62.5 µM in each case. For the same compound, the TGI with SK-MEL-2 melanoma and in the assay with T-47D breast was greater than 62.5 µM each time.

`O=C1/C(=C\c2ccc([N+](=O)[O-])cc2)Sc2scc(-c3ccc(O)c(O)c3)[n+]21`: the TGI with A549 NSCLC is 55.4 µM; in the assay on K-562 leukemia, greater than 100 µM; in the assay with KM12 colon, 27.6 µM; with M14 melanoma, 27.4 µM; in the assay on MDA-MB-231 breast it was 66.9 µM; in the assay on NCI-H23 lung, 44.6 µM. Besides, the values for the TGI in the assay on OVCAR-8 ovarian, with SK-MEL-2 melanoma and with T-47D breast were 29.3 µM, 29.3 µM and 54.6 µM, respectively.

As for `Cc1cc2nc(N3C(=O)/C(=C/c4cccc([N+](=O)[O-])c4)N=C3c3ccccc3)sc2cc1C`, the TGI is greater than 100 µM in the assay on A549 NSCLC; greater than 100 µM in the assay with K-562 leukemia; greater than 100 µM with KM12 colon; greater than 100 µM in the assay on M14 melanoma; greater than 100 µM in the assay on MDA-MB-231 breast; 80.2 µM in the assay on OVCAR-8 ovarian. The TGI in the assay on RXF 393 renal is 58 µM; with SK-MEL-2 melanoma, 60 µM; with T-47D breast it was greater than 100 µM.

As to `O=S(=O)(c1cc(Cl)ccc1Cl)N1CCN(c2ccc(Cl)c(Cl)c2)CC1`, the TGI in the assay on A549 NSCLC, in the assay with K-562 leukemia, with KM12 colon, in the assay on M14 melanoma, in the assay on MDA-MB-231 breast and with NCI-H23 lung was greater than 100 µM throughout. Also, the TGI is 51.4 µM with OVCAR-8 ovarian, 52.2 µM in the assay on RXF 393 renal and greater than 100 µM in the assay with T-47D breast.

With `Cc1ccc(S(=O)(=O)N2CCCSCCSCCCSCC2)cc1`, the TGI with A549 NSCLC, with K-562 leukemia, with KM12 colon, with M14 melanoma, with MDA-MB-231 breast and with NCI-H23 lung was greater than 100 µM each time. For the same compound, the TGI with OVCAR-8 ovarian and with T-47D breast was greater than 100 µM each time.

For the compound `CCOc1cc(/C=N\N(C)C)cc(/C=N\N(C)C)c1O`, the TGI with A549 NSCLC, in the assay with K-562 leukemia, with KM12 colon, in the assay on M14 melanoma, in the assay with MDA-MB-231 breast and with NCI-H23 lung was greater than 100 µM throughout. The TGI in the assay on OVCAR-8 ovarian is 56.2 µM; with SK-MEL-2 melanoma, 77 µM; with T-47D breast, greater than 100 µM.

Take `COCCOCN(C(=O)C1=CCC2(CC1)OCCO2)c1ccccc1I`: the TGI in the assay with A549 NSCLC, with KM12 colon, with M14 melanoma, in the assay with MDA-MB-231 breast, in the assay with NCI-H23 lung and with OVCAR-8 ovarian was greater than 50 µM in each case. Moreover, the TGI with SK-MEL-2 melanoma and with T-47D breast was greater than 50 µM each time.

On to `Clc1ccccc1/C=C/c1nsc(/C=C/c2ccccc2Cl)n1`, for which the TGI was greater than 100 µM with A549 NSCLC; 48.5 µM in the assay on K-562 leukemia; greater than 100 µM with KM12 colon; greater than 100 µM with M14 melanoma; greater than 100 µM with MDA-MB-231 breast; greater than 100 µM with OVCAR-8 ovarian. For the same compound, the TGI in the assay with RXF 393 renal is greater than 100 µM; in the assay with SK-MEL-2 melanoma, greater than 100 µM; in the assay with T-47D breast, 42.8 µM.

Take `COc1ccc(NC(=O)CC(=O)n2nc(C)c(N=Nc3ccc(C)c(C)c3)c2C)cc1`: the TGI in the assay on A549 NSCLC, in the assay with KM12 colon, in the assay with M14 melanoma, in the assay on MDA-MB-231 breast, in the assay with NCI-H23 lung and with OVCAR-8 ovarian was greater than 100 µM each time. For the same compound, the TGI with RXF 393 renal, with SK-MEL-2 melanoma and in the assay with T-47D breast was greater than 100 µM each time.

With `Cc1cc(S(N)(=O)=O)c(SCc2nc(N)nc(N(C)C)n2)cc1Cl`, the TGI with A549 NSCLC, in the assay with K-562 leukemia, with KM12 colon, in the assay on M14 melanoma, with NCI-H23 lung and in the assay with OVCAR-8 ovarian was greater than 10 µM each time. In addition, the TGI with RXF 393 renal, with SK-MEL-2 melanoma and in the assay with T-47D breast was greater than 10 µM each time.

Regarding `CC(CC(=O)CO[C@H]1[C@H](O)[C@@H](O)[C@@H](O)[C@@H]2NC(=O)c3c(cc4c(c3O)OCO4)[C@H]21)OC1OC(CO)C(O)C(O)C1O` (some centres not stated), the TGI in the assay with A549 NSCLC is 9.23 µM; in the assay with KM12 colon it was 1.77 µM; with M14 melanoma, 2.17 µM; in the assay on MDA-MB-231 breast, 1.89 µM; with NCI-H23 lung, 3.07 µM; with OVCAR-8 ovarian, 2.07 µM. Also, the TGI with RXF 393 renal was found to be 1.8 µM; in the assay with SK-MEL-2 melanoma, 0.859 µM; with T-47D breast it was 0.894 µM.

Consider `O=[N+]([O-])c1ccc(Cl)cc1-n1nc(-c2ccccc2)cc1-c1ccccc1`, for which the TGI with A549 NSCLC, in the assay with K-562 leukemia, in the assay with KM12 colon, in the assay with M14 melanoma, with MDA-MB-231 breast and in the assay with NCI-H23 lung was greater than 100 µM in each case. Also, the TGI with OVCAR-8 ovarian, with SK-MEL-2 melanoma and in the assay with T-47D breast was greater than 100 µM in each case.

Turning to `CC1=C2C(=O)O[C@@H](c3ccoc3)[C@]2(C)CCC1=O`, the TGI with A549 NSCLC, in the assay on K-562 leukemia, in the assay on KM12 colon, in the assay with M14 melanoma, with MDA-MB-231 breast and in the assay with NCI-H23 lung was greater than 100 µM in each case. The TGI in the assay with OVCAR-8 ovarian, with SK-MEL-2 melanoma and with T-47D breast was greater than 100 µM each time.

The values are drawn from PubChem BioAssay (NCI).
